Drawing on BindingDB's records for doi:10.1111/cbdd.12681 (Peking University, 2016), this text covers IC50 for eight molecules.

The term IC50 denotes the concentration that inhibits the measured activity by half. Low values mean higher potency, high ones lower potency.

The target of the experiment is T1, Dihydrofolate reductase (Homo sapiens, UniProt P00374).
T1 sequence (P00374 whole entry): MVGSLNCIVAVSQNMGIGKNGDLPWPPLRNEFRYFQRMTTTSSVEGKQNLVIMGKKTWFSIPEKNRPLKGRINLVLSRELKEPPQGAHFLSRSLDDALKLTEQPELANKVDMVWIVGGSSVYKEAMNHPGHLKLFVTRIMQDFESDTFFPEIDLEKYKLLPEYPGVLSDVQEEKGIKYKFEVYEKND
The experiment in a line: DHFR Inhibition Assay. The conditions noted are these: pH 7.5. How it is done: The recombinant human (rh) DHFR was purchased from Sigma-Aldrich (Shanghai, China). All rhDHFR enzymes were assayed spectrophotometrically in a solution containing 0.1 mM dihydrofolate, 0.3 mM NADPH and 100 mM KCl at pH 7.5 and 32 °C. The reaction was initiated with an amount of enzyme yielding a change in O.D. at 340 nm measured by microplate spectrophotometer.
In turn, `Nc1nc(N)c2c(n1)CCC(CCc1ccc(C(=O)N[C@@H](CCC(=O)O)C(=O)O)cc1)N2` (stereo partly drawn) [4-[2-(2,4-Diamino-5,6,7,8-tetrahydropyrido[3,2-d]pyrimidin-6-yl)ethyl]benzoyl-L-glutamic acid (17a)] showed an IC50 of 40 nM.

With `C=CCN1c2c(N)nc(N)nc2CCC1CCc1ccc(C(=O)N[C@@H](CCC(=O)O)C(=O)O)cc1` (stereo partly drawn) [4-[2-(2,4-Diamino-5-allyl-5,6,7,8-tetrahydropyrido[3,2-d]pyrimidin-6-yl)ethyl]benzoyl-L-glutamic acid (20a)], the midpoint of inhibition, the IC50, lay at 706 nM.

The molecule `Nc1nc(N)c2c(n1)CCC(CCc1ccc(C(=O)N[C@@H](CCC(=O)O)C(=O)O)cc1)N2C=O` (stereo partly drawn) [4-[2-(2,4-Diamino-5-formyl-5,6,7,8-tetrahydropyrido[3,2-d]pyrimidin-6-yl)ethyl]benzoyl-L-glutamic acid (19a)] registered an IC50 of 41 nM. In turn, `C=CCN1c2c(O)nc(N)nc2CCC1CCc1ccc(C(=O)N[C@@H](CCC(=O)O)C(=O)O)cc1` (stereo partly drawn) [4-[2-(2-Amino-4-hydroxy-5-allyl-5,6,7,8-tetrahydropyrido[3,2-d]pyrimidin-6-yl)ethyl]benzoyl-L-glutamic acid (23a)] had an IC50 of 298 nM. For the molecule `Nc1nc(O)c2c(n1)CCC(CCc1ccc(C(=O)N[C@@H](CCC(=O)O)C(=O)O)cc1)N2C=O` (stereo partly drawn) [4-[2-(2-Amino-4-hydroxy-5-formyl-5,6,7,8-tetrahydropyrido[3,2-d]pyrimidin-6-yl)ethyl] benzoyl-L-glutamic acid (22a)], it took 10100 nM to reach half-maximal inhibition (IC50). The molecule `Nc1nc(O)c2c(n1)CCC(CCc1ccc(C(=O)N[C@@H](CCC(=O)O)C(=O)O)cc1)N2` (stereo partly drawn) [4-[2-(2-Diamino-4-hydroxy-5,6,7,8-tetrahydropyrido[3,2-d]pyrimidin-6-yl)ethyl]benzoyl-L-glutamic acid (18a)] showed a concentration for half-maximal inhibition (IC50) of 59 nM. With `Nc1nc(N)c2c(n1)CCC(CCc1ccc(C(=O)N[C@@H](CCC(=O)O)C(=O)O)cc1)N2CC(Br)CBr` (stereo partly drawn) [4-[2-[2,4-Diamino-5-(2,3-dibromopropyl)-5,6,7,8-tetrahydropyrido[3,2-d]pyrimidin-6-yl]ethyl]benzoyl-L-glutamic acid (21a)], it took 680 nM to reach half-maximal inhibition (IC50). `Nc1nc(N)c2c(n1)CCC(CNc1ccc(C(=O)N[C@@H](CCC(=O)O)C(=O)O)cc1)N2C=O` (stereo partly drawn) [N-[4-[2-(2,4-Diamino-5-formyl-5,6,7,8-tetrahydropyrido[3,2-d]pyrimidin-6-yl)methyl]amino]benzoyl]-L-glutamic acid (24a)] gave a concentration for half-maximal inhibition (IC50) of 590 nM.
